# “Also recorded” adds a separate entry of the source. Like-named read-outs stand apart in the source and are kept apart here. Marks after values point to notes of the source that are not given here.
# Assays:
# mGlu4 receptor [1] = conditions: cited from earlier work
# DOI-induced HTR = test system: DOI-induced HTR; design: method as in PMID 24947466; conditions: medium dose of 3, 10 and 30 mg/kg; cited from earlier work
# mGlu4 receptor [2] = target: T1, mGlu4 receptor (Homo sapiens, UniProt Q14833); assay: forskolin-stimulated cAMP assay, PAM mode (EC20 of L-Glu), T-REx 293 cells; assay type: cell-based; conditions: SEM where given; for EC50 / Emax: PAM mode; for EC50: EC20 (3 µM) L-Glu, T-REx 293 cells expressing human mGlu4 receptor; for Emax: T-REx-293, human mGlu4, read-out: GluMax; for Fold shift of L-Glu dose-response curve: in the presence of 10 µM of compound
# T1 construct: mGlu4 receptor NM_000841, mGlu7 receptor NM_000844.2, and mGlu8 receptor NM_000845; expressed in transfected cells; host or cells: T-REx 293
# Method: The activity of the compounds was assessed in vitro in a forskolin-stimulated cAMP assay in T-REx 293 cells expressing human mGlu4 receptors in the presence of an EC20 concentration of L-Glu; a PAM was identified if it potentiated cAMP inhibition by the Gi/o-dependent pathway of mGlu4 receptor activation; i.e. if it was able to produce a leftward shift in the potency of the endogenous agonist.
# (§1) Determination of the intracellular cAMP through a homogeneous time-resolved fluorescence (HTRF) cAMP dynamic 2 kit from Cisbio (Codolet, France) was described previously by Chruścicka et al.[91]. Briefly, cells were grown in DMEM supplemented with 10% foetal bovine serum (FBS) (tetracycline free). Forty-eight hours before the experiments, mGlu receptor expression was induced by the addition of 0.75 µg/mL tetracycline. Twenty hours before the experiment, FBS and L-Glu were removed from the medium. Thereafter, the cells were scraped and centrifuged. A cell pellet was suspended in Hanks-HEPES (130 mM NaCl, 5.4 mM KCl, 1.8 mM CaCl2, 0.8 mM MgSO4, 0.9 mM NaH2PO4, 20 mM HEPES, and 3.25 mM glucose; pH 7.4). Then, the cell suspension was incubated in the presence of 10 µM forskolin (or 3 µM forskolin for mGlu7 receptor), the agonist L-glutamate and a compound for 5 min. Next, 10 µl of the cell suspension was mixed with 5 µl of cAMP-d2 conjugate and 5 µL of anti-cAMP cryptate conjugate. After 1 h of incubation at rt, the fluorescence at 620 nm and 665 nm was read (Tecan Infinite M1000). The results were calculated as the 665 nm/620 nm ratio multiplied by 10^4. Each sample was prepared in triplicate.
# Statistical calculations were performed using GraphPad Prism 5.04 software (GraphPad Software, La Jolla, CA, USA). The curves were fitted to a 3-parametric logistic equation, allowing for the determination of EC50 values. Each data point was analysed in triplicate.
# mGlu7 receptor = target: T2, mGlu7 receptor (Homo sapiens, UniProt Q14831); assay: cAMP accumulation assay in cells expressing mGlu7 receptor (agonist, PAM, NAM modes); assay type: cell-based; conditions: 10 µM, agonist mode
# T2 construct: mGlu4 receptor NM_000841, mGlu7 receptor NM_000844.2, and mGlu8 receptor NM_000845; expressed in transfected cells; host or cells: T-REx 293
# Method: (§2) The compounds were tested in the agonist, PAM (in the presence of EC20 concentration of L-Glu) or NAM (with EC80 of L-Glu) modes of forskolin-induced cAMP using T-REx 293 cells expressing the protein of a given receptor.
# (§3) Figure 4. The activity of compounds 34, 37, 49, 52, 60, 62 and reference drugs MMPIP (a selective NAM of mGlu7 receptor) and AZ12216052 (a PAM of mGlu8 receptor) tested at a concentration of 10 μM in the cAMP accumulation assay in cells expressing mGlu7 and mGlu8 receptors. The percent activity refers to two extreme FRET signals: 0% corresponds to forskolin treatment alone and 100% to maximal FRET signal for the control cells (without any treatment). A/D – agonistic activity; B/E – PAM activity measured in the presence of L-Glu at the EC20 concentration (0.1 mM for mGlu7 receptor, and 1 μM for mGlu8 receptor); C/F – NAM activity measured in the presence of L-Glu at the EC80 concentration (1 mM for mGlu7 receptor, 10 μM for Glu8 receptor).
# as §1
# [3] = test system: Salmonella typhimurium strains TA98 and TA100; assay type: cell-based; conditions: TA98 and TA100, with and without S9, ≤ 30 µM
# Method: The primary assessment of the cardiotoxic risk and mutagenic potential of the six selected 1,2,4-oxadiazole derivatives was performed in the hERG channel assay and the mini-AMES test, respectively. The mutagenicity potential was determined in strains TA98 (frameshift mutation) and TA100 (base-pair substitution) of Salmonella typhimurium in the presence and absence of an exogenous metabolic activation system (rat liver S9 fraction) containing mammalian microsomal enzymes.
# The Ames microplate fluctuation protocol (MPF) assay was performed with Salmonella typhimurium strains TA98 and TA100, […]. The bacterial strain as well as the exposure and indicator medium were obtained from Xenometrix AG (Allschwil, Switzerland). […] After the addition of indicator medium, each well of the 24-well plate was aliquoted into 48 wells of a 384-well plate.
# The occurrence of reversion events to histidine prototrophy was observed as the growth of bacteria in the indicator medium without histidine after 72 h of incubation at 37 °C. Bacterial growth in 384-well plates was visualised by a colour change of medium from violet to yellow due to the addition of pH indicator dye. The absorbance was measured with a microplate reader (EnSpire) at 420 nm. The reference mutagen NQNO (0.5 mM) was used as a positive control in the experiments. The medium control baseline (MCB) was calculated, as derived from the mean number of revertants in the medium control plus one standard deviation.
# AMES test was conducted with two Salmonella typhimurium strains TA98 and TA100 in the presence or absence of liver homogenate S9 to simulate the metabolic conversions of tested compounds with liver enzymes. The AMES MPF 98/100 assay from Xenometrix was performed as described by the supplier. Data were analysed with the AMES MPF calculation […]
# (also on this page, place not known: TA10 cal culation TA98 - S9 Revertants TA98 + S9 Revertants - S9 Revertants TA100 + S9 Revertants TA98 - S9 Revertants TA98 + S9 Revertants TA100 - S9 Revertants 0 TA100 + S9 Revertants)
# Albino Swiss mice [4] = assay: modified stress-induced hyperthermia (SIH) in singly housed mice; assay type: in vivo; conditions: over the doses 5, 10 and 20 mg/kg i.p.
# Method: (§4) The compounds were dissolved in a small amount of 100% EtOH and then adjusted with 20% cyclodextrin, and the pH was adjusted to 6.0. The investigated compounds were administered intraperitoneally (i.p.) 60 min before the behavioural test. Control drugs i.e. diazepam, clozapine and imipramine (Sigma–Aldrich, St. Louis, USA), were administered i.p. 60 min before the behavioural test. Cyclodextrin (20%) was used as a vehicle. All solutions were prepared immediately prior to the experiments and were administered at a constant volume of 10 ml/kg.
# The procedure for modified stress-induced hyperthermia was adapted from Van der Heyden[93] and based on the procedure introduced by Borsini[94]. Each experimental group consisted of eight to ten animals. The animals were housed individually in a 26 × 21 × 14 cm Macolon cage 24 h before testing. For this assay, the body temperature was measured for each mouse at t = 0 min (T1) and t = +15 min (T2). Albino Swiss mice were placed into a new cage immediately following T1, with the difference in temperature (T2−T1) used as the measure of stress-induced hyperthermia. […] A comparison between T1 in vehicle-treated mice and those administered the test compound was used to determine whether the agent affects body temperature alone. Diazepam (5 mg/kg) was used as the positive control. The rectal temperature was measured to the nearest 0.1 °C with a Physitemp Theralert thermometer, TH-5, Clifton NJ, USA, with the temperature sensor for mice, Type T, Copper-Constantan Thermocouple, Braintree Scientific Inc. The lubricated thermistor probe (2 mm diameter) was inserted 20 mm into the rectum. The mouse was held at the base of the tail during this determination, and the thermistor probe was left in place until a constant reading was obtained for 15 s. The effects of the investigated compounds on the SIH response were investigated after administration of the compounds at doses of 5, 10 and 20 mg/kg.
# Albino Swiss mice [5] = assay: DOI-induced head twitch test (HTR); assay type: in vivo; conditions: over the doses 2.5, 5 and 10 mg/kg i.p.; DOI 2.5 mg/kg i.p.
# Method: as §4
# The experiments were performed according to the procedure described in our previous studies[75]^,[80]. Briefly, to habituate mice to the experimental environment, each animal was transferred to a 12 cm (diameter) × 20 cm (height) glass cage lined with sawdust 30 min before treatment. Test compounds were administered intraperitoneally (i.p.) at doses of 2.5, 5, and 10 mg/kg body weight 60 min before the test was performed. The head twitch response (HTR) in mice was induced by DOI (2.5 mg/kg, i.p.). Immediately after treatment, the number of head twitches was counted during a 20 min session. Haloperidol and clozapine were used as the reference compounds at active doses of 0.2 and 5 mg/kg, respectively.
# mGlu4 receptor [6] = target: T1, mGlu4 receptor; assay: forskolin-induced cAMP assay, agonist mode, T-REx 293 cells; assay type: cell-based
# Method: as §2, §1
# mGlu8 receptor = target: T3, mGlu8 receptor (Homo sapiens, UniProt O00222); assay: cAMP accumulation assay in cells expressing mGlu8 receptor (agonist, PAM, NAM modes); assay type: cell-based; conditions: 10 µM, agonist mode
# T3 construct: mGlu4 receptor NM_000841, mGlu7 receptor NM_000844.2, and mGlu8 receptor NM_000845; expressed in transfected cells; host or cells: T-REx 293
# Method: as §2, §3, §1
# [7] = test system: untransfected cells of the T-REx 293 line; assay: forskolin-induced cAMP accumulation in untransfected (mock) cells, control experiment; assay type: cell-based; conditions: untransfected T-REx 293 cells
# Method: 2. In vitro mGlu receptor selectivity profile
# Figure S1. Activity of compounds 34, 37, 49, 52, 60 and 62 in forskolin -induced cAMP accumulation in untransfected cells of the T-REx 293 line. Similar to reference mGlu4 receptor […]
# cAMP assay in the mock T-REx 293 cell line. […]
# receptor used as reference drug) tested at a concentration of 10 μM in NAM mode (in the presence of EC80 concentration of L-Glu (30 μM)) by the cAMP accumulation assay in cells expressing mGlu4 receptor. […]
# T1 sequence (Q14833 33-912): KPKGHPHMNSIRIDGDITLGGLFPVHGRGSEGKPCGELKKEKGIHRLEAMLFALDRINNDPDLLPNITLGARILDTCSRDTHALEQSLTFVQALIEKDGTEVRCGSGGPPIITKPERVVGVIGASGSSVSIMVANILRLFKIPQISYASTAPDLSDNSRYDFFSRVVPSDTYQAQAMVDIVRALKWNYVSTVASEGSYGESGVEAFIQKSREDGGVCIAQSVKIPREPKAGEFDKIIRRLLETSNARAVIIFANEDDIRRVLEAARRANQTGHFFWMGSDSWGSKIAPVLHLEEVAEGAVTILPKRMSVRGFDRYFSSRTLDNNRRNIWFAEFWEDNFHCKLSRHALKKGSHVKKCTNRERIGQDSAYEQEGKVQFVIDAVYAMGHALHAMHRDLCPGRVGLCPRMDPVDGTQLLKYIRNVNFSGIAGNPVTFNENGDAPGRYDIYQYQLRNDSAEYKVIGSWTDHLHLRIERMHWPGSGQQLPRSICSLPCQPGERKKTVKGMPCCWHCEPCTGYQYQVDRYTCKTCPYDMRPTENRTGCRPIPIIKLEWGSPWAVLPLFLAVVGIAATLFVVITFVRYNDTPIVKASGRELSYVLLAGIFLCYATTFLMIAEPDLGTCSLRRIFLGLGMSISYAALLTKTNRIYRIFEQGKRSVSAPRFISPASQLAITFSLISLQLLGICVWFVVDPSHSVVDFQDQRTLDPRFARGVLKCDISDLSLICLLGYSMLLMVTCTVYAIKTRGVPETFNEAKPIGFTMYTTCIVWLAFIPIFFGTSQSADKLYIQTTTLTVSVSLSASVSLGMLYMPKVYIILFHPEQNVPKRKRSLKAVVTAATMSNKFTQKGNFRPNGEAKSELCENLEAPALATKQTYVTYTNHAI
# T2 sequence (Q14831 35-915): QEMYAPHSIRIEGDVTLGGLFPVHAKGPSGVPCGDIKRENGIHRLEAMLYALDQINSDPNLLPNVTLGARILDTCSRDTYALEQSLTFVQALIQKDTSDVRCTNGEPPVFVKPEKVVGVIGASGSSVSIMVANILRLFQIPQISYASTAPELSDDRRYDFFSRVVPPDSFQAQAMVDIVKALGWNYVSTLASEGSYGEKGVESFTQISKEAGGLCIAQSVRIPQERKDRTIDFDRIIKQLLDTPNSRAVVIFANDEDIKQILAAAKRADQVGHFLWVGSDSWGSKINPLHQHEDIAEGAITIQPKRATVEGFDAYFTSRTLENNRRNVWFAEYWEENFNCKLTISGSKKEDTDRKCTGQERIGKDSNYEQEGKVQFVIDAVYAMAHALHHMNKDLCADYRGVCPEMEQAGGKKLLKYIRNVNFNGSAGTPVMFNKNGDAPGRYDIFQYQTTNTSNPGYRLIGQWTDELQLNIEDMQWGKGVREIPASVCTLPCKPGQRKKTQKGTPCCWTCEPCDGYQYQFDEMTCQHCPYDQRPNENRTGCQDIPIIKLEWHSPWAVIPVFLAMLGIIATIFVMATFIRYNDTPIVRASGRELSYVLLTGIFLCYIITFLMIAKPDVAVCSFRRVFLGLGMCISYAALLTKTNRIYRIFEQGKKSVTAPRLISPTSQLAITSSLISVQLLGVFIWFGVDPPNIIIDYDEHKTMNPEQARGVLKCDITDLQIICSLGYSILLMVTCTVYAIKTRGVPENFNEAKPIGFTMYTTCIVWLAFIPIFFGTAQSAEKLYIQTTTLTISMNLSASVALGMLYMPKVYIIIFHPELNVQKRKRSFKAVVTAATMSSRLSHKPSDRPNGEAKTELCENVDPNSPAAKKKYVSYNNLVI
# T3 sequence (O00222 34-908): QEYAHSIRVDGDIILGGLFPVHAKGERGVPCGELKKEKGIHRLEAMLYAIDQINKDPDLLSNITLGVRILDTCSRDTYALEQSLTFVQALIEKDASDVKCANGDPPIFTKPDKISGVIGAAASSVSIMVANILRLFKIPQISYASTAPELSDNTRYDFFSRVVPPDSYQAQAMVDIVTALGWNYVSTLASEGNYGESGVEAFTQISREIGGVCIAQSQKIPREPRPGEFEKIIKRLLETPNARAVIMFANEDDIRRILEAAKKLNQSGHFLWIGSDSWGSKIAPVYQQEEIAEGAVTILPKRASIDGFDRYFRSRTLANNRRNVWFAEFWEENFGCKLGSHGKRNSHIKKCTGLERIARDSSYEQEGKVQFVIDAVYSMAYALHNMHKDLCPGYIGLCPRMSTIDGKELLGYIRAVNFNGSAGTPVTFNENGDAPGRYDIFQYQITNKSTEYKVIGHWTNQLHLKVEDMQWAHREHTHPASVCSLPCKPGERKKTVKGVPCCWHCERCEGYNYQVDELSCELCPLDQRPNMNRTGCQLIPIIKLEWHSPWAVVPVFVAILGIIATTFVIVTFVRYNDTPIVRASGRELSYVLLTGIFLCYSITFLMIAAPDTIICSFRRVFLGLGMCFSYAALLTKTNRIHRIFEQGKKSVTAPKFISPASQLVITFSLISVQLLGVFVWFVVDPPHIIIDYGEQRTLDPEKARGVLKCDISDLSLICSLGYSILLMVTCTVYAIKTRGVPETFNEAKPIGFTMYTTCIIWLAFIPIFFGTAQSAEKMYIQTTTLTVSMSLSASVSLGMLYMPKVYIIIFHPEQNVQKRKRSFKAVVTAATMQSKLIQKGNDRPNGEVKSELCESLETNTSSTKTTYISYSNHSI
smiles,measurement,setting,value
FC(F)(F)c1nccc2cc(Nc3n[nH]c4ncccc34)ccc12 [Valiglurax],EC50,"mGlu4 receptor [1]; PAM, read-out: mGlu4 receptor PAM potency EC50",64.6 nM
O/N=c1\cc(-c2cc3sccc3cn2)oc2ccc(CCCN3CCOCC3)cc12 [PXT002331],EC50,"mGlu4 receptor [1]; PAM, read-out: mGlu4 PAM potency EC50",46 nM
O=C(Nc1ccccn1)C12CC1C(=NO)c1ccccc1O2 (centres unmarked) [VU0359516],EC50,"mGlu4 receptor [1]; PAM, read-out: EC50 (mGlu4 receptor PAM)",380 nM
Cc1ccnc(Nc2nc(-c3cn[nH]c3)c(C)s2)n1 [ADX88178],reduction of DOI-induced HTR,DOI-induced HTR,≤ 30%
O=C(Nc1ccc(-c2noc(-c3ccccc3)n2)c(Cl)c1)c1ccccn1 [Compound 49],EC50,mGlu4 receptor [2],352 nM
same,Emax,mGlu4 receptor [2],123%
same,Fold shift of L-Glu dose-response curve,mGlu4 receptor [2],6.77 (0.53)^d
same,agonistic activity at mGlu7 receptor,mGlu7 receptor,direct agonistic activity
same,mutagenic activity (mini-AMES),[3],no mutagenic potential
same,effect on SIH response,Albino Swiss mice [4],not effective
same,effect on DOI-induced HTR,Albino Swiss mice [5],not effective; also recorded: no influence
"Cc1cc(NC(=O)c2ccccn2)ccc1-c1noc(-c2ccccc2Cl)n1 [Compound 62, N-(4-(5-(2-chlorophenyl)-1,2,4-oxadiazol-3-yl)-3-methylphenyl)picolinamide]",EC50,mGlu4 receptor [2],308 nM
same,Emax,mGlu4 receptor [2],135%
same,Fold shift of L-Glu dose-response curve,mGlu4 receptor [2],3.3 (0.34)^d
same,agonistic action at mGlu4 receptor,mGlu4 receptor [6],lacked agonistic action
same,agonistic activity at mGlu7 receptor,mGlu7 receptor,lacked agonistic action
same,agonistic activity at mGlu8 receptor,mGlu8 receptor,lacked agonistic action
same,mutagenic activity (mini-AMES),[3],no mutagenic potential
same,effect on SIH response,Albino Swiss mice [4],significant anxiolytic- and antipsychotic-like properties; also recorded: significantly reduced SIH responses at all three doses; also recorded: at all doses significantly reduced the SIH response
same,effect on DOI-induced HTR,Albino Swiss mice [5],significant anxiolytic- and antipsychotic-like properties; also recorded: at all doses significantly reduced; also recorded: Clear dose-response effects; also recorded: clear dose-dependent response and high potency; also recorded: comparable to that of clozapine
O=C(Nc1cc(Cl)cc(Cl)c1)[C@H]1CCCC[C@H]1C(=O)O [VU0155041],effect on forskolin-induced cAMP accumulation in mock cells,[7],no effects
same,EC50,"mGlu4 receptor [1]; reference ago-PAM, read-out: agonist activity at mGlu4 receptor, EC50",2500 nM
